Ka data for eight molecules are collected here from ChEMBL document CHEMBL1687695, “Thermodynamic and Structural Effects of Macrocyclization as a Constraining Method in Protein-Ligand Interactions” (ACS Med Chem Lett, 2010).

Numbered stars: 1 amine (or outer) side, 2 acyl side, 3 side chain; on linkers, the order of the positions; unused ones are H or OH. Square brackets hold non-standard residues; d marks the D form. Peptide text beside a SMILES is read from it. * marks the point of attachment. pY = N[C@@H](Cc1ccc(OP(=O)(O)O)cc1)C(=O)O; NH(CH2)9CO = O=C(CCCCCCCCCN[*:1])[*:2]; Nonanoyl = CCCCCCCCC(=O)*; Hexanoyl = CCCCCC(=O)*; Ahp = NCCCCCCC(=O)O

The nature of this series: Association constant Ka of the compound. The format is physicochemical.
For the molecule `CCCCCC(=O)N[C@@H](Cc1ccc(OP(=O)(O)O)cc1)C(=O)N[C@H](C(=O)N[C@@H](CC(N)=O)C(=O)NCC(=O)NC)C(C)C` (Hexanoyl-[pY]VNG-NHMe), the Ka was 4.1 ×10⁵ /M.
`CCCCCC(=O)N[C@@H](Cc1ccc(OP(=O)(O)O)cc1)C(=O)N[C@H](C(=O)N[C@@H](CC(N)=O)C(=O)N[C@H](C(=O)NC)C(C)C)C(C)C` (Hexanoyl-[pY]VNV-NHMe) had a Ka of 2.3 ×10⁶ /M.
`CCCCCC(=O)N[C@@H](Cc1ccc(OP(=O)(O)O)cc1)C(=O)N[C@H](C(=O)N[C@@H](CC(N)=O)C(=O)N[C@H](C(=O)N1CCC[C@H]1C(=O)NC)C(C)C)C(C)C` (Hexanoyl-[pY]VNVP-NHMe) came in with a Ka of 6.5 ×10⁶ /M.
Regarding `CCCCCCCCC(=O)N[C@@H](Cc1ccc(OP(=O)(O)O)cc1)C(=O)N[C@H](C(=O)N[C@@H](CC(N)=O)C(=O)NCC(=O)NC)C(C)C` (Nonanoyl-[pY]VNG-NHMe), the Ka is 5.7 ×10⁵ /M.
For the molecule `CC(C)[C@@H]1NC(=O)[C@H](Cc2ccc(OP(=O)(O)O)cc2)NC(=O)CCCCCCCCCNC(=O)CNC(=O)[C@H](CC(N)=O)NC1=O` (cyclo(G[NH(CH2)9CO][pY]VN)), the Ka stood at 8.5 ×10⁵ /M.
`CC(C)[C@@H]1NC(=O)[C@H](Cc2ccc(OP(=O)(O)O)cc2)NC(=O)CCCCCCNC(=O)CNC(=O)[C@H](CC(N)=O)NC1=O` (cyclo([Ahp][pY]VNG)): the Ka is listed as 4.7 ×10⁴ /M.
Regarding `CC(C)[C@@H]1NC(=O)[C@H](CC(N)=O)NC(=O)[C@H](C(C)C)NC(=O)[C@H](Cc2ccc(OP(=O)(O)O)cc2)NC(=O)CCCCCCNC1=O` (cyclo([Ahp][pY]VNV)), the Ka is 2.3 ×10⁶ /M.
As for `CC(C)[C@@H]1NC(=O)[C@H](Cc2ccc(OP(=O)(O)O)cc2)NC(=O)CCCCCCNC(=O)[C@@H]2CCCN2C(=O)[C@H](C(C)C)NC(=O)[C@H](CC(N)=O)NC1=O` (cyclo([Ahp][pY]VNVP)), the Ka is listed as 1 ×10⁷ /M.
